Test results from patent US20240335451A1, “ACRYLAMIDE DERIVATIVES USEFUL AS ANTI-INFLAMMATORY AGENTS” (Sitryx Therapeutics Limited, priority 2021, published 2024).

What was measured:
Assay type in all cases: cell-based
[1] = test system: NRF2 (nuclear factor erythroid 2-related factor 2); assay: NRF2 activation assay (DiscoverX PathHunter NRF2 translocation kit, U2OS cells); conditions: Homo sapiens; for Emax: U2OS, normalised to dimethyl fumarate high control; for EC50: U2OS PathHunter cells, 6 hours
[2] = test system: IL-1β cytokine output from THP-1s; assay: THP-1 AlphaLISA IL-1β cytokine assay (differentiated THP-1 cells, LPS then nigericin); conditions: Homo sapiens, 30 min pre-incubation, LPS 24 hr, nigericin 1 hour
Protocol: (§1) Measuring Inhibitory Effects on IL-1β and IL-6 Cytokine Output from THP-1s
(§2) The cytokine inhibition profiles of compounds of formula (I) were determined in a differentiated THP-1 cell assay. All assays were performed in RPMI-1640 growth medium (Gibco), supplemented with 10% fetal bovine serum (FBS; Gibco), 1% penicillin-streptomycin and 1% sodium pyruvate unless specified otherwise. The IL-1β and IL-6 cytokine inhibition assays were each run in a background of differentiated THP-1 cells as described below. All reagents described were from Sigma-Aldrich unless specified otherwise. Compounds were prepared as 10 mM DMSO stocks.
(§3) THP-1 cells were expanded as a suspension up to 80% confluence in appropriate growth medium. Cells were harvested, suspended, and treated with an appropriate concentration of phorbol 12-myristate 13-acetate (PMA) over a 72 hr period (37° C./5% CO2).
(§4) Following 72 hrs of THP-1 cell incubation, cellular medium was removed and replaced with fresh growth media containing 1% of FBS. Working concentrations of compounds were prepared separately in 10% FBS treated growth medium and pre-incubated with the cells for 30 minutes (37° C./5% CO2). Following the 30 minute compound pre-incubation, THP-1s were treated with an appropriate concentration of LPS and the THP-1s were subsequently incubated for a 24 hr period (37° C./5% CO2). An appropriate final concentration of Nigericin was then dispensed into the THP-1 plates and incubated for 1 hour (37° C./5% CO2) before THP-1 supernatants were harvested and collected in separate polypropylene 96-well holding plates.
(§5) Reagents from each of the IL-1β and IL-6 commercial kits (Perkin Elmer) were prepared and run according to the manufacturer's instructions. Subsequently, fluorescence signal detection in a microplate reader was measured (EnVision® Multilabel Reader, Perkin Elmer).
(§6) Percentage inhibition was calculated per cytokine by normalizing the sample data to the high and low controls used within each plate (+/−LPS respectively).

[3] = test system: IL-6 cytokine output from THP-1s; assay: THP-1 AlphaLISA IL-6 cytokine assay (differentiated THP-1 cells, LPS then nigericin); conditions: Homo sapiens, 30 min pre-incubation, LPS 24 hr, nigericin 1 hour
Protocol: as §1, §2, §3, §4, §5, §6

[4] = +GSH (30 minute compound/GSH pre-incubation)

EC50 [1, 4] | EC50 ([1]; −GSH) | IC50 [2] | IC50 [3] | SMILES | Emax ([1]; +GSH) | Emax ([1]; −GSH)
> 100 µM | > 100 µM | 34.3 µM | 13.9 µM | C=C(CC(=O)OC1(c2ccc(C(F)(F)F)cc2)CCC1)C(N)=O [Example 8, 1-(4-(trifluoromethyl)phenyl)cyclobutyl 3-carbamoylbut-3-enoate] | 7% | 21%
> 100 µM | 35.2 µM | 13.2 µM | 8.3 µM | C=C(CC(=O)OC1(c2cc(Cl)cc(Cl)c2)CCC1)C(N)=O [Example 20, 1-(3,5-dichlorophenyl)cyclobutyl 3-carbamoylbut-3-enoate] | 28% | 156%
